Data set [1] has as its system Soluble and membrane HEK293T cell proteomes. Nature of the data set: Gel assay (gel ABPP): protein binding, rhodamine CuAAC, SDS-PAGE fluorescence. The arrangement: species or system human. The note with it: 25 μM, one hour. The protocol:
(§1) FIG. 2. Structure activity relationship studies of some azetidine compounds of the present disclosure and their reactivity. Cell lysates were incubated with the indicate azetidine compounds for 1 hr for gel experiments and 3 hrs for LC-MS/MS experiments. Rhodamine or desthiobiotin tags were appended to the probe for gel and mass spectrometry experiments, respectively, by copper-catalyzed azide-alkyne cycloaddition, i.e., CLICK chemistry.
(§2) Continuing with the benzimidazole azetidine, we appended different alkyne tags via reductive amination or HATU coupling to observe the effects of N-substituents on the ring (Scheme 1 above). Soluble and membrane HEK293T cell proteomes were treated with 25 μM of azetidine compounds for one hour before addition of rhodamine via CLICK chemistry, i.e., copper catalyzed azide-alkyne cycloaddition (CuAAC). After the proteins were resolved via SDS-PAGE, we discovered a robust and unique binding profile from the azetidine probes (FIG. 2 and FIG. 3).

Data set [2] in a line: Evaluation of ring-opening under biological conditions with cysteine (LC-MS/MS). The class given is physicochemical. The note with it: cysteine 1.5 mmol eq., 37° C., 24 hrs, PBS and DMF (5:1). The protocol: (§3) An exemplary azetidine compound (RLM207) was dissolved in deuterated PBS with either cysteine (1.5 mmol eq.) or glutathione (1.5 mmol eq.), and incubated at 37° C. for 24 hrs in phosphate-buffered saline and DMF (5:1). To observe if any products formed between the RLM207 and biological nucleophiles, high-resolution LC-MS/MS was used to analyze the two reactions. Samples were desalted on a STAGE-Tip C^18 column and dissolved in mobile phase A (0.1% formic acid) for LC-MS/MS analysis. […] Thus, at 24.46 min, there appeared a peak with an M+1 mass of 547.2336 m/z corresponding to the covalent product.
(§4) Ring-opening reactions of azetidines typically employ harsh conditions that are not amenable to biological samples, such as strong acids and organic solvents^12-15. Our discovery was the first indication that azetidines form covalent products with a tripeptide.

Data set [3] is described as follows: Evaluation of ring-opening under biological conditions with glutathione (LC-MS/MS). The class given is physicochemical. The conditions noted are these: glutathione 1.5 mmol eq., 37° C., 24 hrs, PBS and DMF (5:1), MS2. As to the method: as §3, §4
Data set [4] deals with T1, recombinant rat DGKα (Rattus norvegicus, UniProt P51556).
T1 construct: expressed in transfected cells; host or cells: HEK293T
T1 sequence (P51556 whole entry): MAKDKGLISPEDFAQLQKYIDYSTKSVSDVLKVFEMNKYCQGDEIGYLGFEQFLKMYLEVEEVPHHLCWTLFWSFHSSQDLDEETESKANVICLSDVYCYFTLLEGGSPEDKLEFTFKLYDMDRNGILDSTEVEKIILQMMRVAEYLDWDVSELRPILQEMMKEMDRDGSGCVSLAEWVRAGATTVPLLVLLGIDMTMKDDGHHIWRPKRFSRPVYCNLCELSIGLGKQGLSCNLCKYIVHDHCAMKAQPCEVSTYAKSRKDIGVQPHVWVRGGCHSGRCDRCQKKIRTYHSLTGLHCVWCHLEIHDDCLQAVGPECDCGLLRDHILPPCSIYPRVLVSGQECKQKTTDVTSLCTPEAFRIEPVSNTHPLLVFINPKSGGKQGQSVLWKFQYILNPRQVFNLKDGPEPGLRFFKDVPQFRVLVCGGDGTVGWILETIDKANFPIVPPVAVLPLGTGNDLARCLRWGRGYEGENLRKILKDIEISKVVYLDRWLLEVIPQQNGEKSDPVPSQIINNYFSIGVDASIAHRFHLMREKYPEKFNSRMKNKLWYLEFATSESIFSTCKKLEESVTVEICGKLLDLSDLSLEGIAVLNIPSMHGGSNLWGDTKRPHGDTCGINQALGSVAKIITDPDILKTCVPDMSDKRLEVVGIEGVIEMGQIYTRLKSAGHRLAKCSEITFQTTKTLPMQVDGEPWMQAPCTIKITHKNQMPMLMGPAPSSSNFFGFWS
Nature of the data set: Competitive ABPP gel assay using TH071. The class given is binding. The note with it: Na2S4 1 hr, TH071 as probe. As to the method: as §2
(§5) T-cells require endogenous H2S to activate and proliferate. Cystathionine β-synthase (CBS) and Cystathionine γ-lyase (CSE) are two proteins responsible for generating H2S, and previous studies have shown how knockdown of these proteins can drastically impair T-cell function. We initially tested if DGKα was affected by sulfur donors in a recombinant system. Thus, HEK293T cells expressing recombinant rat DGKα were treated with Na2S4 for 1 hr for luminescent ADP detection assay (ADP-Glo) and ABPP experiments. The activity of the rat isoform in our ADP-Glo™ assay (Promega Corporation) decreased by 40% at 10 μM 30% at 1 μM of the sulfur donor.

The test system of data set [5] is DGK. Nature of the data set: Substrate assay (ADP-Glo) on second DGK isoform. The class given is cell-based. The note with it: tested in a similar manner as DGKα.
The target of data set [6] is T1, recombinant rat DGKα. Nature of the data set: ADP-Glo luminescent ADP detection assay. The class given is cell-based. The note with it: 1 hr, HEK293T cells expressing recombinant rat DGKα. As to the method:
as §5
(In general: In ADP-Glo the light output rises with the ADP produced.)

For another data set, the system named is HEK lysates. Nature of the data set: LC-MS/MS identification of azetidine-tagged proteins/peptides (desthiobiotin azide enrichment). The class given is binding, human. The protocol: as §1
Our initial attempts to enrich for azetidine-bound peptides were not optimal when we treated HEK lysates with only 25 μM of azetidine compound, illustrated by TH071. While we could easily observe protein bands by gel fluorescence, we were not saturating the proteome.
(§6) Next, isotopically labeled proteins were obtained through routine procedures using labeled amino acids, and the proteins were then reacted with TH071 for 3 hrs before click chemistry with desthiobiotin azide for 2 hours. Proteins were digested by trypsin into peptides before azetidine-bound peptides were enriched via affinity chromatography. Eluted peptides were analyzed by high resolution LC-MS/MS using a top 10 data-dependent acquisition (DDA). An added mass of 631.3858 Da was used to search for azetidine modifications to amino acid residues. Peptides were quantified between samples by measuring the integration of MS1 peaks between heavy and light peptides, and were sequenced by manual verification of MS2 fragmentation spectra. […] Sulfhydration modifications are a form of cysteine oxidation after the reaction with H2S to form a persulfide (S—SH).

Data set [7] deals with recombinant mammalian DGKα (Rattus norvegicus, UniProt P51556). Put plainly: LC-MS/MS enrichment of azetidine-bound peptides on recombinant DGKα. The class given is binding. The protocol: as §6
Sequence of recombinant mammalian DGKα (P51556 whole entry, the tested form may be a part): as the sequence (P51556 whole entry) above
Due to the lipophilic nature of azetidines, we also tested TH071 on recombinant mammalian DGKα and enriched for four peptides that were unique to this azetidine compound. Of these sites, two are located adjacent to the active site, one within the catalytic domain, and another in the zinc finger domain. […] DGKs […] the interconversion of diacylglycerol (DAG) to phosphatidic acid (PA). […]

The subject of data set [8] is DGK. Put plainly: Gel labeling of second DGK isoform by probe. The class given is binding. The note with it: gel assay. The protocol:
as §2, §5

Results on seven compounds are retold here after patent publication US12624020B2, “Compositions and methods for preparing and using azetidines” (University of Virginia Patent Foundation, priority 2018, dated 2026).

The structures appear in SMILES notation. Entries after “also recorded” stand apart in the source; their conditions may differ.

As for `C#CCCCN1CC(c2ccc(F)cc2)C1` [TH069], in data set [1], the “azetidine reactivity / protein binding (probe labeling) in gel assay” value (from here on “azetidine reactivity / protein binding”) is “most reactive”.

As for `C#CCCCN1CC(c2nc3ccccc3[nH]2)C1` [RLM207], the “product formation between azetidine and cysteine” value in [2] was “no change was observed”. Besides, in data set [3], the “product formation between azetidine and glutathione (ring-opening)” value is “had bound to the cysteine of glutathione”.

For the compound `[Na+].[Na+].[S-]SS[S-]` [Na2S4], the “effect of sulfur donor on TH071 labeling of DGKα (competitive ABPP)” value on recombinant rat DGKα [4] is recorded as “these results were recapitulated”. Besides, the “effect on DGK activity in substrate assay” value in the data set on DGK [5] is “showed no effect”. Also, the “decrease of DGKα activity” value on recombinant rat DGKα [6] (1 μM sulfur donor) is on record as 30%; at recombinant rat DGKα [6] (10 μM sulfur donor), 40%.

Turning to `C#CCCCN1CCC1c1cccc(F)c1` (stereo not shown) [TH073], in data set [1], the “azetidine reactivity / protein binding” value is on record as “could not recover probe labeling”.

Take `C#CCCCN1CCC1c1ccccc1F` (stereo not shown) [TH074]: the “azetidine reactivity / protein binding” value in data set [1] is reported as “could not recover probe labeling”.

On to `C#CCCCN1CC(c2ccccc2F)C1` [TH071], for which the “enrichment of azetidine-bound peptides” value in the data set on HEK lysates (25 μM, HEK lysates) is reported as “not optimal”. The “identification of azetidine-tagged proteins by LC-MS/MS” value in the data set on HEK lysates (0.5 mM TH071, 3 hrs, HEK lysates) is “identified multiple azetidine-tagged proteins”. Further, the “residue type modified by the azetidine compound” value in the data set with HEK lysates (MS2 site localisation, FIG. 5) was “binds to cysteine residues”. For the same compound, the “azetidine reactivity / protein binding” value in data set [1] was “most reactive; also recorded: could not recover probe labeling; also recorded: displayed the best reactivity”. The “number of enriched peptides unique to the azetidine compound” value in data set [7] is recorded as “four”. Further, in the data set on DGK [8], the “probe labeling of DGK protein” value is listed as “failed to label the protein”.

Take `C#CCCCN1CC(c2cccc(F)c2)C1` [TH070]: the “azetidine reactivity / protein binding” value in [1] was “least reactive”.
